Where “and” joins values, the source holds several entries; their conditions need not be identical. Equal values may be shown once.
Key:
MIA PaCa-2 cells [1] = assay: XTT cytotoxicity assay on MIA PaCa-2 cells; type: cell-based; details: 72 h
Method: (§1) The cytotoxic effect of BA and PEG–BA was assessed using the 2,3-bis-(2-methoxy-4-nitro-5-sulfophenyl)-2H-tetrazolium-5-carboxanilide (XTT) assay, an improved tetrazolium dye based assay that obviates the solubilisation step [41]. A concentration of 1 × 10^5 cells/mL each of adherent MIA PaCa-2 and Vero cells were seeded into 96-well plates (BD Biosciences, San Diego, California, USA) overnight before treatment with the compounds at concentrations ranging from 0.4 to 100 µM for 72 h. Doxorubicin (0.2 µg/mL) was used as a positive control for cell death assessment and DMSO was used as a vehicle control. After treatment, washed cells (433× g, 5 min, 25 °C) were exposed to 125 µL of complete DMEM containing 25 µL of XTT solution and incubated (37 °C, 5% CO2, 95% humidity) for 4 h. The optical density of the mixture was measured at 450 nm with a background at 690 nm using a Multiskan Ascent 96/384 microplate reader (Labsystem, Vantaa, Finland). Cell viability was determined as a percentage relative to the vehicle control. The IC50 was then calculated using GraphPad Prism 6 (GraphPad Software, Inc, San Diego, CA, USA). The selectivity index (IC50 Vero cells/IC50 MIA PaCa-2) and potentiation factor (PF50) at 50% growth inhibition (IC50) were also determined. The PF50 is the IC50 value of free drug divided by the IC50 value obtained from a combination of drugs, which is the polymer drug conjugate in this case. Statistical significance was calculated using a two-way analysis of variant (ANOVA) and the Bonferroni post-test to compare replicate means in GraphPad Prism 6 (GraphPad Software, Inc, San Diego, CA, USA). A p < 0.05 was considered to be statistically significant.

Vero cells = assay: XTT cytotoxicity assay on Vero cells; type: cell-based; details: 72 h
Method: as §1, with “The selectivity index (IC50 Vero cells/IC50 MIA PaCa-2) and potentiation factor (PF50) at 50% growth inhibition (IC50) were also determined. The PF50 is the IC50 value of free drug divided by the IC50 value obtained from a combination of drugs, which is the polymer drug conjugate in this case.” left out, “A p < 0.05 was considered to be statistically significant.” left out

MIA PaCa-2 cells [2] = assay: Annexin V-FITC / propidium iodide apoptosis detection by flow cytometry; type: cell-based, human; details: 4 µM, 72 h
Method: The mode of cell death induced by the BA and PEG–BA on MIA PaCa-2 and Vero cells was assessed using the Annexin V-FITC Apoptosis kit I (BD Biosciences, San Diego, CA, USA). The assay was performed per the manufacturer’s protocol and as previously described with slight modifications. The cells were analysed for apoptosis and necrosis after acquiring 30,000 events using a BD LSRFortessa™ Analyser (BD Biosciences, San Diego, CA, USA). The BD FACSDiva software was used to detect fluorescein isothiocyanate (FITC) positive signals for apoptotic cells (Annexin-v positive) on a 530/30 filter and peridinin–chlorophyll–protein (PerCP) positive signals for necrotic cells (propidium iodide positive) on a 610/20 band pass filter. Apoptosis was determined at three different concentrations around the IC50, 1, 1.7 and 4 µM. Doxorubicin (0.2 ug/mL) was used as a positive control for apoptosis induction. The data were exported as flow cytometry standard (FCS) files and analysed using FlowJo software Version 10 (FlowJo, LLC, Ashland, OR, USA). The data were exported and represented as means ± standard error of three independent experiments using GraphPad Prism 6.

[3] = MTT cytotoxicity assay on PBMCs; type: cell-based, human; details: human, peripheral blood mononuclear cells (PBMCs), n = 4, read-out: PBMC viability
Method: (§2) The supernatant obtained from PBMCs (1 × 10^6 cells/mL) treated and incubated (72 h, 37 °C, 5% CO2, 95% humidity) with BA and PEG–BA (3 µM) were used for this assay. Cytotoxicity was performed on isolated PBMCs (see Supplementary Materials for isolation protocol) using the 3-(4,5-dimethylthiazol-2-yl)-2,5-diphenyl tetrazolium bromide (MTT) assay as previously described. For the cytometric bead array (CBA) assay, the PBMCs were isolated from both consenting PC patients (n = 4) and healthy control donors (n = 2). Ethics clearance to collect blood samples was obtained from the Human Research Ethics Committee (Medical) of the University of the Witwatersrand (M170440). The PBMCs were stimulated with 2 µg/mL of phytohaemagglutinin-protein (PHA-P). After the 72 h incubation period, the cells and medium were transferred to 5 mL Falcon® round-bottom polypropylene tubes and centrifuged at 433× g for 5 min at room temperature. Aliquots of the cell-free supernatant were collected and stored at −80 °C until needed for experiments.

[4] = test system: peripheral blood mononuclear cells (PBMCs); assay: MTT cytotoxicity assay on PBMCs; type: cell-based, human; details: 3 µM
Method: as §2

IL-6 = assay: Cytometric bead array Th1/Th2/Th17, IL-6 in supernatant of PHA-P stimulated PBMCs; type: cell-based, human; details: 3 µM, 72 h
Method: as §2, with “After the 72 h incubation period, the cells and medium were transferred to 5 mL Falcon® round-bottom polypropylene tubes and centrifuged at 433× g for 5 min at room temperature. Aliquots of the cell-free supernatant were collected and stored at −80 °C until needed for experiments.” left out
The CBA Th1/Th2/Th17 assay was performed according to the manufacturer’s instructions (BD Biosciences, La Jolla, San Diego, CA, USA) and as previously described, but with minor modifications. […] Specific fluorescence associated with each bead population was detected using flow cytometry allowing for the identification of the various cytokines in the sample. […] Acquired FCS files were analysed using a flow cytometric analysis software (FCAPArray™) from BD Biosciences. Interferon-gamma (IFN-γ), TNF-α, IL-2, IL-4, IL-6, IL-10 and IL-17A concentrations were all determined from standard curves. […]

Row | SMILES | IC50 (MIA PaCa-2 cells [1]; Homo sapiens, MIA PaCa-2 cells, XTT) [µM] | selectivity index (SI) (IC50 Vero cells/IC50 MIA PaCa-2) (MIA PaCa-2 cells [1]; Vero vs MIA PaCa-2, XTT) | IC50 (Vero cells; Primates, XTT) [µM] | highest apoptotic effect (mainly late-apoptotic phase) (MIA PaCa-2 cells [2]) [%] | viability at 72 h, 3 µM [3] [%] | cytotoxicity on PBMCs [4] [%] | IL-6 concentration (IL-6; PBMCs of PC patients (n = 4), average) [pg/mL] | IL-6 concentration (IL-6; PBMCs of control participants (n = 2)) [pg/mL] | cell death (cytotoxicity) (MIA PaCa-2 cells [1]; MIA PaCa-2 cells, 0.2 µg/mL (0.4 µM)) [%] | cell death (cytotoxicity) (Vero cells; 0.2 µg/mL (0.4 µM)) [%]
1 | C=C(C)[C@@H]1CC[C@]2(C(=O)O)CC[C@]3(C)[C@H](CC[C@@H]4[C@@]5(C)CC[C@H](O)C(C)(C)[C@@H]5CC[C@]43C)[C@@H]12 [BA, betulinic acid] | 12.7 ± 0.34 | 1.4 and 1.43 | 18.2 ± 0.09 | 31.43 ± 16.7 | 9.2 ± 0.8 | 49.2 ± 0.8 | 5430.94 | 396.24 | – | –
2 | COc1cccc2c1C(=O)c1c(O)c3c(c(O)c1C2=O)C[C@@](O)(C(=O)CO)C[C@@H]3O[C@H]1C[C@H](N)[C@H](O)[C@H](C)O1 [Doxorubicin] | – | – | – | – | – | – | – | – | 83.3 ± 1.6 | 43.24 ± 14.2
